Measured values reported in PubChem BioAssay AID1963864 (Molecular Pharmacology Branch, DTP, NCI, 2024).

Tested on: KRAS PDC multicell spheroid viability
Test: Anticancer human tumor 521955-158-R6-J3-PDC patient-derived pancreatic carcinoma cell line growth inhibition [KRAS2]
Conditions: for IC50: curve of first compound; for viability, T/C: stronger effect = lower value
From the text: Multicellular complex tumor spheroid response to RAS pathway inhibitors in combination with a targeted agents in patient-derived cell lines with oncogenic KRAS variants from multiple cancer types
A high-throughput screen of multi-cell type tumor spheroids was designed to identify active combinations of targeted small molecules and KRAS pathway inhibitors. Complex spheroids include a stromal component modeled by human endothelial cells (HUVEC) and fibroblasts modeled by human mesenchymal stem cells (MSCs). The concentration ranges selected for each drug and investigational agent were based upon clinically achievable concentrations if the clinical Cmax of the agent was known.
Compounds. The drugs and investigational agents: BI-3406 (NSC825286), BAY-293 (NSC824723), batoprotafib (TNO155; NSC825523), sotorasib (AMG 510; NSC818433), MRTX1257 (NSC819558), elimusertib (BAY 1895344; NSC800525), molibresib (GSK525762; NSC774829), temuterkib (LY3214996; NSC803410), venetoclax (NSC766270), alisertib (NSC759677), olaparib (NSC753686), talazoparib (NSC767125), erdafitinib (NSC781556), ipatasertib (NSC767898), cabozantinib (NSC761068), nintedanib (NSC756659), abemaciclib (NSC768073), docetaxel (NSC628503), trametinib (NSC758246), and sapanisertib (NSC764658) were obtained from the National Cancer Institute (NCI) Developmental Therapeutics Program Chemical Repository. The FDA-approved anticancer drug set is available from the Developmental Therapeutics Program. […] The stock solutions were prepared in dimethyl sulfoxide (DMSO, Sigma-Aldrich, St. Louis, MO, cat. D2650) at 800-fold the tested concentration and stored at -70 degrees C prior to their use. All drugs and investigational agents were tested over a range starting from a high concentration at or near the clinical Cmax and decreasing in half-log increments. If the clinical Cmax for an agent had not been determined, the highest concentration tested was 10 microM.
Cell Culture. All cells were maintained in an incubator at 37 degrees C and 5% CO2 with 95% humidity. The PDC lines were cultured according to standard operating procedures established by the NCI PDMR (https://pdmr.cancer.gov/sops/default.htm). Briefly, all PDCs were thawed and cultured in Matrigel-coated flasks prepared with a working solution of 1X Ham's F-12 nutrient mix, without supplementation (Invitrogen, Waltham, MA, cat. 11765054), 100 U/mL penicillin-streptomycin (Invitrogen, cat. 15140122), and 2.5% Matrigel (Corning Inc., Corning, NY, cat. 354248) for the first three passages. All PDCs were cultured in complete DMEM/F-12 media containing advanced DMEM/F-12 (Invitrogen, cat. 12634028), 4.9% defined fetal bovine serum, heat inactivated (HyClone Laboratories Inc., Logan, UT, cat. SH30070.03HI), 389 ng/mL hydrocortisone (Sigma-Aldrich, cat. H4001), 9.7 ng/mL human EGF recombinant protein (Invitrogen, cat. PHG0313), 23.4 microg/mL adenine (Sigma-Aldrich, cat. A2786), 97.3 U/mL penicillin-streptomycin (Invitrogen, cat. 15140122), 1.9 mM L-glutamine (Invitrogen, cat. 25030081), and 9.7 microM Y-27632 dihydrochloride (Tocris Bioscience, Bristol, United Kingdom, cat. 1254). The PDCs were cultured in complete DMEM/F12 media without 9.7 microM Y-27632 dihydrochloride for at least two passages prior to the screen. The established cell line HOP-62 was cultured in RPMI 1640 medium, HEPES (Invitrogen, cat. 22400105) with 10% defined fetal bovine serum (HyClone Laboratories Inc., cat. SH30070.03) and 2 mM L-glutamine (Invitrogen, cat. 25030081). The pooled donor HUVEC were cultured in endothelial cell growth medium 2 (PromoCell, Heidelberg, Germany, cat. C-22011) and the hMSC were cultured in mesenchymal stem cell growth medium 2 (PromoCell, cat. C-28009). For all experiments, HUVEC and hMSC were used at passages </=5, while the malignant cell lines were used at passages </=15. […]

[1] = second compound 0.1 µM, first compound 0.000316 µM
[2] = second compound 0.1 µM, first compound 0.001 µM
[3] = second compound 0.1 µM, first compound 0.00316 µM
[4] = second compound 0.1 µM, first compound 0.01 µM
[5] = second compound 0.1 µM, first compound 0.0316 µM
[6] = second compound 0.316 µM, first compound 0.000316 µM
[7] = second compound 0.316 µM, first compound 0.001 µM
[8] = second compound 0.316 µM, first compound 0.00316 µM
[9] = second compound 0.316 µM, first compound 0.01 µM
[10] = second compound 0.316 µM, first compound 0.0316 µM
[11] = second compound 1 µM, first compound 0.000316 µM
[12] = second compound 1 µM, first compound 0.001 µM
[13] = second compound 1 µM, first compound 0.00316 µM
[14] = second compound 1 µM, first compound 0.01 µM
[15] = second compound 1 µM, first compound 0.0316 µM
[16] = second compound 3.16 µM, first compound 0.000316 µM
[17] = second compound 3.16 µM, first compound 0.001 µM
[18] = second compound 3.16 µM, first compound 0.00316 µM
[19] = second compound 3.16 µM, first compound 0.01 µM
[20] = second compound 3.16 µM, first compound 0.0316 µM
[21] = second compound 10 µM, first compound 0.000316 µM
[22] = second compound 10 µM, first compound 0.001 µM
[23] = second compound 10 µM, first compound 0.00316 µM
[24] = second compound 10 µM, first compound 0.01 µM
[25] = second compound 10 µM, first compound 0.0316 µM
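Also: drug exposure lasted seven days.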
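For viability, T/C in this document: 100% = DMSO vehicle wells and lower means fewer viable cells.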

CC(=O)Nc1cccc(-n2c(=O)n(C3CC3)c(=O)c3c(Nc4ccc(I)cc4F)n(C)c(=O)c(C)c32)c1 + C=CC(=O)N1CCN(c2nc(=O)n(-c3c(C)ccnc3C(C)C)c3nc(-c4c(O)cccc4F)c(F)cc23)C(C)C1
IC50 (second compound 0.1 µM): 25.5 nM
IC50 (second compound 0.316 µM): > 31.6 nM
IC50 (second compound 1 µM): > 31.6 nM
IC50 (second compound 3.16 µM): > 31.6 nM
IC50 (second compound 10 µM): 8.58 nM
viability, T/C (second compound 0.1 µM, first compound 0.0001 µM): 97.7%
viability, T/C [1]: 96.3%
viability, T/C [2]: 92%
viability, T/C [3]: 88.1%
viability, T/C [4]: 69.1%
viability, T/C [5]: 45.2%
viability, T/C (second compound 0.316 µM, first compound 0.0001 µM): 107%
viability, T/C [6]: 99.1%
viability, T/C [7]: 95.4%
viability, T/C [8]: 83.7%
viability, T/C [9]: 72.8%
viability, T/C [10]: 50.5%
viability, T/C (second compound 1 µM, first compound 0.0001 µM): 102%
viability, T/C [11]: 99.9%
viability, T/C [12]: 98.5%
viability, T/C [13]: 88.1%
viability, T/C [14]: 83.4%
viability, T/C [15]: 51%
viability, T/C (second compound 3.16 µM, first compound 0.0001 µM): 84.4%
viability, T/C [16]: 92.2%
viability, T/C [17]: 91.9%
viability, T/C [18]: 90.7%
viability, T/C [19]: 71.6%
viability, T/C [20]: 52.2%
viability, T/C (second compound 10 µM, first compound 0.0001 µM): 64.4%
viability, T/C [21]: 69.8%
viability, T/C [22]: 58.4%
viability, T/C [23]: 58.4%
viability, T/C [24]: 46.3%
viability, T/C [25]: 41%

CC(C)n1nc(-c2ccc3oc(N)nc3c2)c2c(N)ncnc21 + C=CC(=O)N1CCN(c2nc(=O)n(-c3c(C)ccnc3C(C)C)c3nc(-c4c(O)cccc4F)c(F)cc23)C(C)C1
IC50 (second compound 0.1 µM): > 100 nM
IC50 (second compound 0.316 µM): > 100 nM
IC50 (second compound 1 µM): > 100 nM
IC50 (second compound 3.16 µM): > 100 nM
IC50 (second compound 10 µM): 84.8 nM
viability, T/C [1]: 96.2%
viability, T/C [2]: 90.9%
viability, T/C [3]: 75.6%
viability, T/C [4]: 67.9%
viability, T/C [5]: 62.5%
viability, T/C (second compound 0.1 µM, first compound 0.1 µM): 55.4%
viability, T/C [6]: 91.7%
viability, T/C [7]: 97.7%
viability, T/C [8]: 92.8%
viability, T/C [9]: 70.8%
viability, T/C [10]: 66.9%
viability, T/C (second compound 0.316 µM, first compound 0.1 µM): 53.3%
viability, T/C [11]: 97.8%
viability, T/C [12]: 90.6%
viability, T/C [13]: 77.3%
viability, T/C [14]: 71.9%
viability, T/C [15]: 67.4%
viability, T/C (second compound 1 µM, first compound 0.1 µM): 53.5%
viability, T/C [16]: 93%
viability, T/C [17]: 93%
viability, T/C [18]: 81.4%
viability, T/C [19]: 70.2%
viability, T/C [20]: 66.7%
viability, T/C (second compound 3.16 µM, first compound 0.1 µM): 56.4%
viability, T/C [21]: 99%
viability, T/C [22]: 89.9%
viability, T/C [23]: 74.6%
viability, T/C [24]: 77.2%
viability, T/C [25]: 59.8%
viability, T/C (second compound 10 µM, first compound 0.1 µM): 47.5%
